Data reported in US20230416248A1, “COMPOUNDS AND USES THEREOF” (Foghorn Therapeutics Inc., priority 2020, published 2023).
Like-named read-outs stand apart in the source and are kept apart here.

Legend:
BRG-1 = target: T1, BRG-1 (Homo sapiens, UniProt P51532); test: ATPase catalytic activity of BRG-1, ADP-Glo in vitro biochemical assay; conditions: 30 nM BRG-1, 400 μM ATP, read-out: BRG1 IC50
T1 construct: made in house; host or cells: High Five insect cells
Protocol: The ATPase catalytic activity of BRM or BRG-1 was measured by an in vitro biochemical assay using ADP-Glo™ (Promega, V9102). The ADP-Glo™ kinase assay is performed in two steps once the reaction is complete. The first step is to deplete any unconsumed ATP in the reaction. The second step is to convert the reaction product ADP to ATP, which will be utilized by the luciferase to generate luminesce and be detected by a luminescence reader, such as Envision.
Then, following addition of 5 μL of ADP-Glo™ Reagent provided in the kit, the reaction incubates at room temperature for 40 minutes. Then, 10 μL of Kinase Detection Reagent provided in the kit is added to convert ADP to ATP, and the reaction incubates at room temperature for 60 minutes. Finally, luminescence measurement is collected with a plate-reading luminometer, such as Envision.

BRM = target: T2, BRM (Homo sapiens, UniProt P51531); test: ATPase catalytic activity of BRM, ADP-Glo in vitro biochemical assay; conditions: for IC50: 30 nM BRM, 400 μM ATP; for Ratio* (BRG1 IC50 (μM) divided by BRM IC50 (μM)): selectivity ratio BRG1 IC50 / BRM IC50
T2 construct: made in house; host or cells: High Five insect cells
Summary of the method: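 Recombinant BRM (30 nM) hydrolysed 400 μM ATP with 20 nM salmon sperm DNA in pH 8 Tris buffer containing 20 mM MgCl2, 50 mM NaCl, 0.1% Tween-20 and 1 mM DTT, 1 h at room temperature. ADP formed was quantified by ADP-Glo luminescence.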

[1] = ATPase catalytic activity, ADP-Glo

T1 sequence (P51532 whole entry): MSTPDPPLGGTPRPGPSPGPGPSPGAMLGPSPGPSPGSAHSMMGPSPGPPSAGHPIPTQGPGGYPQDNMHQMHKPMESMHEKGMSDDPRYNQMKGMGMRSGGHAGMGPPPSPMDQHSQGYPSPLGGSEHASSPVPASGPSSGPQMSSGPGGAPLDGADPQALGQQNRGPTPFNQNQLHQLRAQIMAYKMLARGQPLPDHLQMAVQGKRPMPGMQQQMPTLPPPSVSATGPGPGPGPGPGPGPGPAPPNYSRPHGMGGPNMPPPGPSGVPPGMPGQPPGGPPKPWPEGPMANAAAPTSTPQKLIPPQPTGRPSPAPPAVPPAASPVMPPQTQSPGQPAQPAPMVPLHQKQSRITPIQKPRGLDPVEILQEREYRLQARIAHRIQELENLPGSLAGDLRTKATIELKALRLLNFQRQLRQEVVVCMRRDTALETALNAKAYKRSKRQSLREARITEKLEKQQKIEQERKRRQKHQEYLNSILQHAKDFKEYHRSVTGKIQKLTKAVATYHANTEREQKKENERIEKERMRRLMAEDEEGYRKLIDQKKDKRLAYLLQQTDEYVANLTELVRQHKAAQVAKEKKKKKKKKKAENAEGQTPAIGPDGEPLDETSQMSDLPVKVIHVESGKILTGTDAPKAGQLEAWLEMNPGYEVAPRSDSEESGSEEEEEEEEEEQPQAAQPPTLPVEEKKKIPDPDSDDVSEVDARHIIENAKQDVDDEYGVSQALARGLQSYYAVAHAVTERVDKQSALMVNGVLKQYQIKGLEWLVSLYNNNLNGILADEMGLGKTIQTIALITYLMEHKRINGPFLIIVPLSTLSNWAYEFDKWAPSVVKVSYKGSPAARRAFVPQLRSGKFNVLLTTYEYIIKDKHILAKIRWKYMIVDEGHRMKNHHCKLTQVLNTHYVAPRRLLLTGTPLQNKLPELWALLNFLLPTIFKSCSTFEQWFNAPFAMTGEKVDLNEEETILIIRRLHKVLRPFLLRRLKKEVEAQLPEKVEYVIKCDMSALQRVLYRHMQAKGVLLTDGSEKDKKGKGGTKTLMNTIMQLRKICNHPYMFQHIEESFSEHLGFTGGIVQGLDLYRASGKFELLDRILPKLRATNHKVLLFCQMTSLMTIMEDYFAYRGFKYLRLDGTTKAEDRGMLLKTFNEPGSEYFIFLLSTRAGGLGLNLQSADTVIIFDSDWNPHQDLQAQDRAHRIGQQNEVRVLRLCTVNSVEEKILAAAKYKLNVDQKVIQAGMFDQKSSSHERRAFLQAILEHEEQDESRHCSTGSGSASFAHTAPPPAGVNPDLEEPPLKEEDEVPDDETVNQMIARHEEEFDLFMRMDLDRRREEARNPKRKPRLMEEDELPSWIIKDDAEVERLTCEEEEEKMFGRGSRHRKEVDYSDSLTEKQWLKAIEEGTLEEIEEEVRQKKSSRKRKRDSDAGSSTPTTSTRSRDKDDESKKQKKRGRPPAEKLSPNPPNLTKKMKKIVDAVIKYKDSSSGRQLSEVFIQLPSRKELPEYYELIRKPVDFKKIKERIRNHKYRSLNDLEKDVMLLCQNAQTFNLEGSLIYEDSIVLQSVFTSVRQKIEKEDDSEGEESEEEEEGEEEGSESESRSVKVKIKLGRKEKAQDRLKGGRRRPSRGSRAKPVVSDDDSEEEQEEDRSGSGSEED
T2 sequence (P51531 whole entry): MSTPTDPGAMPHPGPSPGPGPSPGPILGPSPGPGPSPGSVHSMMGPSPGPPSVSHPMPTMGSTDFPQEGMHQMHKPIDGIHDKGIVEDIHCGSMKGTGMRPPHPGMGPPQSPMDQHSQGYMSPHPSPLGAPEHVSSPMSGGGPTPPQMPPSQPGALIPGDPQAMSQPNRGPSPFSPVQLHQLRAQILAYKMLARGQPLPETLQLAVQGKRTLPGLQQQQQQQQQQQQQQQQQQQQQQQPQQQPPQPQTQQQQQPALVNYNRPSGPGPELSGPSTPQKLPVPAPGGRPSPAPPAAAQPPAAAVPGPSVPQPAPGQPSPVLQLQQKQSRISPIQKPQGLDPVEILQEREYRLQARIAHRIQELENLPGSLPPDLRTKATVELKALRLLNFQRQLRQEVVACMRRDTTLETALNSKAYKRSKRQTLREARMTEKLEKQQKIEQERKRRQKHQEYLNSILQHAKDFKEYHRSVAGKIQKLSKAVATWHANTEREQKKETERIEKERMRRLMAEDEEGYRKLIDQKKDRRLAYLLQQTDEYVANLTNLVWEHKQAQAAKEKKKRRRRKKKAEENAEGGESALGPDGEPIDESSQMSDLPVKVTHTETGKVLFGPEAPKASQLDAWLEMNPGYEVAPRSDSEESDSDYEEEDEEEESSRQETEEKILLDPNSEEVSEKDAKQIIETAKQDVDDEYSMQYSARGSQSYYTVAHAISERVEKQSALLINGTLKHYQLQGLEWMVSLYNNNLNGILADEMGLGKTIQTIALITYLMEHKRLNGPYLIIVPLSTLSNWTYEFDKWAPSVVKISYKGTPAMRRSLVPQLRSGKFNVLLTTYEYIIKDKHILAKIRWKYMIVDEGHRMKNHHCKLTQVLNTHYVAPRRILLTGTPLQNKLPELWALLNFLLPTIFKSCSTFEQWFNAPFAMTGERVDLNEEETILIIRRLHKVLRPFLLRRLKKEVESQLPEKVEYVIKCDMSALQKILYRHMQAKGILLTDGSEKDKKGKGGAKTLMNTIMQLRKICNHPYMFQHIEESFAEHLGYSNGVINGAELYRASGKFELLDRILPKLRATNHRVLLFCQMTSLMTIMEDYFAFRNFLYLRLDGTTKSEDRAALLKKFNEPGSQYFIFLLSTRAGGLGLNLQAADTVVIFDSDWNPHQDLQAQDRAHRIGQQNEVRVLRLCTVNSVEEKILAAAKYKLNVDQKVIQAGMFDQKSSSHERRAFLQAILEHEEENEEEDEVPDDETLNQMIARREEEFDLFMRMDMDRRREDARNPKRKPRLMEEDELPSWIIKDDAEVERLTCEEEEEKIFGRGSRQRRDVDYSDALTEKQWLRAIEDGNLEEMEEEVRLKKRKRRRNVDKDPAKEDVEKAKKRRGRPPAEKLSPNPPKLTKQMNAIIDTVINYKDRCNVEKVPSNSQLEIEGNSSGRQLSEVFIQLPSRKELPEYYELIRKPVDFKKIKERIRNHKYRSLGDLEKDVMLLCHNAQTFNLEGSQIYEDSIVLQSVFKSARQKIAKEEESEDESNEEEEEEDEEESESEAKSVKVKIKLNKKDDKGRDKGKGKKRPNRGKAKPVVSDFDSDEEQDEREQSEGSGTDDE

Row | SMILES | IC50 (BRG-1; ADP-Glo ATPase assay) [nM] | IC50 (BRM; ADP-Glo ATPase assay) [nM] | Ratio* (BRM; ratio BRG1 IC50 / BRM IC50) | Ratio* (BRG1 IC50 (μM) divided by BRM IC50 (μM)) (BRM) | IC50 (BRG-1; [1]) [nM] | IC50 (BRM; [1]) [nM] | Ratio* (BRM; ratio of BRG1 IC50 to BRM IC50)
1 | O=C(NCc1cc2nc(N3CCOc4c3cnc(C3CC3)c4F)ccc2cn1)c1ccc2c(c1)S(=O)(=O)CCOC2 [Compound 813] | 477 | 38.1 | 12.52 |  |  |  | 
2 | O=C(NCc1cc2nc(-c3cccc(C4CC4)n3)ccc2cn1)c1cc(F)c2c(c1)S(=O)(=O)CCOC2 [Compound 63] | 633 | 21.4 |  | 29.53 |  |  | 
3 | CO[C@@H]1CCN(c2cccc(-c3ccc4cnc(CNC(=O)c5ccc6c(c5)S(=O)(=O)CCOC6)cc4n3)n2)C1 [Compound 200] | 59.1 | 8.1 |  | 7.31 |  |  | 
4 | O=C(NCc1cc2nc(-c3cccc(C4(C(F)F)CC4)n3)ccc2cn1)c1ccc2c(c1)S(=O)(=O)CCOC2 [Compound 208] | 377 | 42.7 |  | 8.84 |  |  | 
5 | COc1ncccc1-c1ccc2cnc(CNC(=O)c3ccc4c(c3)S(=O)(=O)CCOC4)cc2n1 [Compound 808] | 1050 | 84 | 12.50 |  |  |  | 
6 | CN1CCN(c2ccc3cnc(CNC(=O)c4ccc5c(c4)S(=O)(=O)CCOC5)cc3n2)c2ccccc21 [Compound 512] |  |  |  |  | 217 | 28.7 | 7.58
7 | COC[C@@H](C)N(C)c1cccc(-c2ccc3cnc(CNC(=O)c4ccc5c(c4)S(=O)(=O)CCOC5)cc3n2)n1 [Compound 72] | 1230 | 224 |  | 5.48 |  |  | 
8 | CN1CCCc2ccc(-c3ccc4cnc(CNC(=O)c5ccc6c(c5)S(=O)(=O)CCOC6)cc4n3)nc21 [Compound 488] |  |  |  |  | 90.8 | 12.7 | 7.17
9 | Cc1cc2c(nc1C)N(c1ccc3cnc(CNC(=O)c4ccc5c(c4)S(=O)(=O)CCOC5)cc3n1)CCC2 [Compound 463] |  |  |  |  | 119 | 7.8 | 15.21
10 | O=C(NCc1cc2nc(-c3cccc4c3CCN4C3COC3)ccc2cn1)c1ccc2c(c1)S(=O)(=O)CCOC2 [Compound 198] | 967 | 222 |  | 4.34 |  |  | 
11 | O=C(NCc1cc2nc(-c3cccc(Cl)c3)ccc2cn1)c1ccc2c(c1)S(=O)(=O)CCOC2 [Compound 258] | 4120 | 221 |  | 18.63 |  |  | 
12 | O=C(NCc1cc2nc(-c3ccc4ccn(CC(F)F)c4n3)ccc2cn1)c1ccc2c(c1)S(=O)(=O)CCOC2 [Compound 140] | 243 | 35.2 |  | 6.92 |  |  | 
13 | CCN(C[C@H](C)OC)c1cccc(-c2ccc3cnc(CNC(=O)c4ccc5c(c4)S(=O)(=O)CCOC5)cc3n2)n1 [Compound 345] |  |  |  |  | 251 | 15 | 16.77
14 | CS(=O)(=O)c1cc(C(=O)NCc2cc3nc(-c4cncc(C5CC5)n4)ccc3cn2)ccc1Cl [Compound 294] | 2710 | 156 |  | 17.37 |  |  | 
15 | COCCc1ccc2c(n1)N(c1ccc3cnc(CNC(=O)c4ccc5c(c4)S(=O)(=O)CCOC5)cc3n1)CCC2 [Compound 651] |  |  |  |  | 1700 | 55.3 | 30.77
16 | O=C(NCc1cc2nc(N3CCCc4cc(Cl)cnc43)ccc2cn1)c1ccc2c(c1)S(=O)(=O)CCOC2 [Compound 588] |  |  |  |  | 412 | 28.9 | 14.25
17 | O=C(NCc1cc2nc(-c3cccc(OC(F)(F)F)n3)ccc2cn1)c1ccc2c(c1)S(=O)(=O)CCOC2 [Compound 237] | 468 | 22.7 |  | 20.63 |  |  | 
18 | C[C@@H]1Cc2ccc(-c3ccc4cnc(CNC(=O)c5ccc6c(c5)S(=O)(=O)CCOC6)cc4n3)nc2N(C)C1 [Compound 661] |  |  |  |  | 301 | 43.9 | 6.86
19 | COc1cncc2c1CCCN2c1ccc2cnc(CNC(=O)c3ccc4c(c3)S(=O)(=O)CCOC4)cc2n1 [Compound 761] | 67.9 | 8.7 | 7.77 |  |  |  | 
